The text below walks through data of ChEMBL document CHEMBL3352020, “Targeting matrix metalloproteinases: exploring the dynamics of the s1' pocket in the design of selective, small molecule inhibitors” (J Med Chem, 2014).

By pKi is commonly meant −log10 of the Ki, conventionally taken in molar units. Low readings indicate a high Ki, high ones a low Ki. Usually pIC50 stands for the IC50 on a negative log10 scale, so that one unit is a factor of ten.

pIC50, pKi: −log10 of the molar value.

The target of one assay is T1, Interstitial collagenase (Homo sapiens, UniProt P03956).
T1 sequence (P03956 whole entry): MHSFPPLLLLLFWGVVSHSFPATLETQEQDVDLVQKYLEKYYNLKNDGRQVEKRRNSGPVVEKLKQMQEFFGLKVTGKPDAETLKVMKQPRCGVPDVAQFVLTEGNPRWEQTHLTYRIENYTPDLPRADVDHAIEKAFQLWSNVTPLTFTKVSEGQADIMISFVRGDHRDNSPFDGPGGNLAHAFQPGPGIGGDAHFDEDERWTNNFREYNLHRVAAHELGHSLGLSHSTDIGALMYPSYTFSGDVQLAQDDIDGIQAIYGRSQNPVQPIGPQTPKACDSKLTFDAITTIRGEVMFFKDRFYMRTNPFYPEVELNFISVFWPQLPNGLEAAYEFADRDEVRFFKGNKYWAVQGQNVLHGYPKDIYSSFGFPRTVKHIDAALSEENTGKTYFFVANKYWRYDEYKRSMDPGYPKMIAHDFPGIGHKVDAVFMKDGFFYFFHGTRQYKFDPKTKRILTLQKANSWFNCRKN
The experiment in a line: Inhibition of MMP1 (unknown origin).

Assay [1] deals with 72 kDa type IV collagenase (Homo sapiens, UniProt P08253). The assay can be described thus: Inhibition of MMP2 (unknown origin).
Assay [2] deals with Macrophage metalloelastase (Homo sapiens, UniProt P39900). The experiment in a line: Inhibition of MMP12 (unknown origin).
For assay [3], the target named is Matrix metalloproteinase-9 (Homo sapiens, UniProt P14780). The experiment in a line: Inhibition of MMP9 (unknown origin).
In a further assay the target is T2, Matrilysin (Homo sapiens, UniProt P09237).
T2 sequence (P09237 whole entry): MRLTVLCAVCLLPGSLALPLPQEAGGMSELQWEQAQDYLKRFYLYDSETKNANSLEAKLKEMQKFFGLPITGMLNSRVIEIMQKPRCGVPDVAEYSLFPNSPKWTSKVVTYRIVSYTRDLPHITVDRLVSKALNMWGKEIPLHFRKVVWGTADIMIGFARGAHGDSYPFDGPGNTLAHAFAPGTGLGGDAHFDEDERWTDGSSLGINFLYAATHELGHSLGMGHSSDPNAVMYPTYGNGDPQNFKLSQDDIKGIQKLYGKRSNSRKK
The assay can be described thus: Inhibition of MMP7 (unknown origin).

A further assay concerns the target Neutrophil collagenase (Homo sapiens, UniProt P22894). The assay can be described thus: Inhibition of MMP8 (unknown origin).
In a further assay the target is Stromelysin-1 (Homo sapiens, UniProt P08254). The assay can be described thus: Inhibition of MMP3 (unknown origin).
For assay [4], the target named is T3, Matrix metalloproteinase-17 (Homo sapiens, UniProt Q9ULZ9).
T3 sequence (Q9ULZ9 whole entry): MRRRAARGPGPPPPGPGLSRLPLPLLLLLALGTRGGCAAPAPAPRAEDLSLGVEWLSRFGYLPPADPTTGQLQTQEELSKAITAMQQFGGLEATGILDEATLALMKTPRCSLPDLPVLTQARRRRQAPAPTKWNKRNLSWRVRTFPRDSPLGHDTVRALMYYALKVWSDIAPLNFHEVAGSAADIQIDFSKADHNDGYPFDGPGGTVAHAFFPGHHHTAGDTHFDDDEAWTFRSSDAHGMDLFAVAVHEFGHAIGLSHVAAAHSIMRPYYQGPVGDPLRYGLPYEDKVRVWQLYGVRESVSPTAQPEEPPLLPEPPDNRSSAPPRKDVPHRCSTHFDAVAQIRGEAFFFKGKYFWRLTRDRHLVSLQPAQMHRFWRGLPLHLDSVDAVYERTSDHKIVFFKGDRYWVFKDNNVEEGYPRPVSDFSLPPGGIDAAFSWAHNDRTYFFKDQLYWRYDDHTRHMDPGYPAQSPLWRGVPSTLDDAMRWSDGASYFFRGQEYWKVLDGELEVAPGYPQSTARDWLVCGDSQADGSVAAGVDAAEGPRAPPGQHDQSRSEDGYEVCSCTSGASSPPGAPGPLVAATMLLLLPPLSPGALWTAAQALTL
The assay can be described thus: Inhibition of MMP17 (unknown origin).

The target in assay [5] is Matrix metalloproteinase-14 (Homo sapiens, UniProt P50281). The experiment in a line: Inhibition of MMP14 (unknown origin).

Sequence of Matrix metalloproteinase-9 (P14780 whole entry): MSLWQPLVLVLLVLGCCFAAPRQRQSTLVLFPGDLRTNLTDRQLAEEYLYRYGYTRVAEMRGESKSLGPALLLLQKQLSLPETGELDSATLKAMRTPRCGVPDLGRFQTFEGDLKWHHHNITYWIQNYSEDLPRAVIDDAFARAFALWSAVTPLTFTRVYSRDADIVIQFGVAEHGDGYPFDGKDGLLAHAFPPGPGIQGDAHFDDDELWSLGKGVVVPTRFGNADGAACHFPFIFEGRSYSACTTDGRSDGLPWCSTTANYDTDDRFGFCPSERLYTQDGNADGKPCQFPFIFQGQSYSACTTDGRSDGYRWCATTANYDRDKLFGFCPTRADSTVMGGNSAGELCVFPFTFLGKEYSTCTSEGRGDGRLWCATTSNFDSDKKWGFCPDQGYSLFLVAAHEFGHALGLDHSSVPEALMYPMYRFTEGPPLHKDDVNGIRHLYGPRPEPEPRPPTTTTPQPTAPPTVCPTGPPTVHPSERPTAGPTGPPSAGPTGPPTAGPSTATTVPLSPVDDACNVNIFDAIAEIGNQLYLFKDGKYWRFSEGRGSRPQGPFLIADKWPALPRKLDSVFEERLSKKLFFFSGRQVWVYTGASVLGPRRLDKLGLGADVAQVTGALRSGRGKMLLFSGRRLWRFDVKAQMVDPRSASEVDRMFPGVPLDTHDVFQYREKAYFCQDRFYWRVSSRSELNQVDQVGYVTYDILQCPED
Sequence of Neutrophil collagenase (P22894 whole entry): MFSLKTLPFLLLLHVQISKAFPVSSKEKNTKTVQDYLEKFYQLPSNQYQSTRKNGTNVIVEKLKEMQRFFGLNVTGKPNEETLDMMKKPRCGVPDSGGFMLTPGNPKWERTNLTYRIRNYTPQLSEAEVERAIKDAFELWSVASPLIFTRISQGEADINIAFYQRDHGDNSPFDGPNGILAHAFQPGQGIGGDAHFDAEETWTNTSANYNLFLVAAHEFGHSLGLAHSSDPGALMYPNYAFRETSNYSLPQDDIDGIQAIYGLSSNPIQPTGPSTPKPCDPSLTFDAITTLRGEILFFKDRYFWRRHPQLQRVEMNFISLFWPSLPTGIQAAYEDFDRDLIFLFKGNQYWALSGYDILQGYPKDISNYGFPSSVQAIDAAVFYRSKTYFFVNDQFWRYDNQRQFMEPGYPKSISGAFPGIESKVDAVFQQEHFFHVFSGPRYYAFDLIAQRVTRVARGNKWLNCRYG
Sequence of Macrophage metalloelastase (P39900 whole entry): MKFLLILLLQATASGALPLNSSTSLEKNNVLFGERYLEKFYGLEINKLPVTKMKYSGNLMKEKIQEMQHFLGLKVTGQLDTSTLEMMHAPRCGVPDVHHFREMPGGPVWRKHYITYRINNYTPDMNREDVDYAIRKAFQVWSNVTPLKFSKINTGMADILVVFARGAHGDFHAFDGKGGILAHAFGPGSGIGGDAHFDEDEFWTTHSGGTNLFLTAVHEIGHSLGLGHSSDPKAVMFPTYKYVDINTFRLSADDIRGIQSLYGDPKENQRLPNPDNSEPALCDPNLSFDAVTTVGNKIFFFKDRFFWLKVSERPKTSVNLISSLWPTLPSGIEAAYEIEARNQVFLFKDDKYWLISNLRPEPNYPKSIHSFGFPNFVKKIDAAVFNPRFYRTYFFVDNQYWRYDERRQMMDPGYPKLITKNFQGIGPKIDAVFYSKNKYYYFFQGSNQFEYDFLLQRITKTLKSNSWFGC
Sequence of Stromelysin-1 (P08254 whole entry): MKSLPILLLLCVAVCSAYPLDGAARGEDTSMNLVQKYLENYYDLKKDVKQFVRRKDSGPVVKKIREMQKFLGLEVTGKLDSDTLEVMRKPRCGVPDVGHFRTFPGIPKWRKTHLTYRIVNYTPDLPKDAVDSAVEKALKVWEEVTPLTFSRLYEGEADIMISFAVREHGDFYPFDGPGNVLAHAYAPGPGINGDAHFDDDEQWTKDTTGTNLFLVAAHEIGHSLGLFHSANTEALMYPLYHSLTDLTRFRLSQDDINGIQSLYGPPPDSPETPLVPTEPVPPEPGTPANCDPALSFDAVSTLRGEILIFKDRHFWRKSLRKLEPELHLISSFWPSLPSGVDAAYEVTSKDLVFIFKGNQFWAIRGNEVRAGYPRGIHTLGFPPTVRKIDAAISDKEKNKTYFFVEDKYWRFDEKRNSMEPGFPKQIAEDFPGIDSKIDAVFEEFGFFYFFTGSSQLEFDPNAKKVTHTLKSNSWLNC
Sequence of 72 kDa type IV collagenase (P08253 whole entry): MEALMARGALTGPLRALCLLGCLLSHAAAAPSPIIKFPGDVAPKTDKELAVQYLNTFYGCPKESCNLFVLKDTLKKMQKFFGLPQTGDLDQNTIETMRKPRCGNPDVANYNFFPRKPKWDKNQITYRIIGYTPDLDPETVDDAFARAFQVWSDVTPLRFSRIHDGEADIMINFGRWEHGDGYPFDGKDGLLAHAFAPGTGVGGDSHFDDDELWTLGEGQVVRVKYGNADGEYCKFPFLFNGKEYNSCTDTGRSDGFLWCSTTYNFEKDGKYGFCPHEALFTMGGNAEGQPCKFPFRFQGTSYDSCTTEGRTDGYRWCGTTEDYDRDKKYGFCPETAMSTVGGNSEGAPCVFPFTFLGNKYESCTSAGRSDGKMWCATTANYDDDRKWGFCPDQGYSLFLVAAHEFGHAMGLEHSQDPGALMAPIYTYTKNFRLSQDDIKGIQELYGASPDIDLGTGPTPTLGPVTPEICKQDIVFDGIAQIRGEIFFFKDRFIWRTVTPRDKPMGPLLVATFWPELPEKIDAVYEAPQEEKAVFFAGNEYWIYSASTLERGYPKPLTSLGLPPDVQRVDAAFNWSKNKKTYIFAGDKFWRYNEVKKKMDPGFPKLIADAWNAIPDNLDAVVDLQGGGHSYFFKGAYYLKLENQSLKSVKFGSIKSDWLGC

Compound `O=C(CC1(S(=O)(=O)c2ccc(Oc3ccccc3)cc2)CCOCC1)NO` had a pKi on Interstitial collagenase of 7.64.
On to `Cn1c(=O)n(Cc2ccc(C(=O)O)cc2)c(=O)c2cc(C#CCc3ccccc3)ccc21`, for which the pIC50 (in assay [1]; in assay [2]; against Interstitial collagenase; in [3]; at Matrilysin; on Neutrophil collagenase) was less than 4.52 each time. Further, the pIC50 (on Stromelysin-1; in [4]; in [5]) was less than 4.52 each time.
In the case of `CC(C)N(C)c1ccc(-c2cn(-c3ccc(S(=O)(=O)C4(C(=O)NO)CCNCC4)cc3)nn2)cc1`, the pIC50 was 8.52 in assay [1] and 6.46 in assay [3].
For `CN(C)c1ccc(-c2cn(-c3ccc(S(=O)(=O)C4(C(=O)NO)CCNCC4)cc3)nn2)cc1`, in that order: 8.77 and 7.36.
For `O=C(OCc1ccccc1)c1cn2c(=O)n(Cc3ccccc3)c(=O)cc2s1`, the negative-log IC50 (pIC50) (in assay [1]; in [2]; at Interstitial collagenase; in assay [3]; at Matrilysin; on Neutrophil collagenase) was less than 4.52 in each case. The pIC50 (against Stromelysin-1; in assay [4]; in [5]) was less than 4.52 in each case.
For `NC(=O)CC1CCCc2sc3nc(C(=O)NCc4ccc5c(c4)NC(=O)CO5)[nH]c(=O)c3c21` (racemic), the pIC50 (in assay [1]; in assay [2]; against Interstitial collagenase; in assay [3]; at Matrilysin; against Stromelysin-1) was less than 5.60 throughout. Further, in [5], the pIC50 was less than 5.60.
In turn, `CC#CCOc1ccc(Oc2ccc(S(=O)(=O)NC(C(=O)NO)C(C)C)cc2)cc1` (stereo not drawn) had a negative-log IC50 (pIC50) at Interstitial collagenase of 7.40.
`O=C1N=C(O)NC(=O)[C@@]1(c1ccccc1)N1CCC(CCO)CC1`: the negative-log IC50 (pIC50) was 5.77 on Neutrophil collagenase and 4.52 against Stromelysin-1.
